# Activity calls are given as the source filed them. The rule behind the calls is not given here.
# What was measured:
# Malme-3M = assay: Growth inhibition of human MALME-3M cells at 10 uM after 48 hrs by sulforhodamine B assay; assay type: functional; settings: read-out: GI
# LOX IMVI = assay: Growth inhibition of human LOXIMVI cells at 10 uM after 48 hrs by sulforhodamine B assay; assay type: functional
# U-251 = assay: Growth inhibition of human U251 cells at 10 uM after 48 hrs by sulforhodamine B assay; assay type: functional
# SNB-75 = assay: Growth inhibition of human SNB75 cells at 10 uM after 48 hrs by sulforhodamine B assay; assay type: functional
# KM12 = assay: Growth inhibition of human KM12 cells at 10 uM after 48 hrs by sulforhodamine B assay; assay type: functional
# SW-620 = assay: Growth inhibition of human SW620 cells at 10 uM after 48 hrs by sulforhodamine B assay; assay type: functional
# HT-29 = assay: Growth inhibition of human HT-29 cells at 10 uM after 48 hrs by sulforhodamine B assay; assay type: functional
# HCT-15 = assay: Growth inhibition of human HCT15 cells at 10 uM after 48 hrs by sulforhodamine B assay; assay type: functional
# HCT-116 = assay: Growth inhibition of human HCT116 cells at 10 uM after 48 hrs by sulforhodamine B assay; assay type: functional
# COLO 205 = assay: Growth inhibition of human COLO205 cells at 10 uM after 48 hrs by sulforhodamine B assay; assay type: functional
# NCI-H522 = assay: Growth inhibition of human NCI-H522 cells at 10 uM after 48 hrs by sulforhodamine B assay; assay type: functional; settings: NCI-H522, 48 h, read-out: GI
# NCI-H322M = assay: Growth inhibition of human NCI-H322M cells at 10 uM after 48 hrs by sulforhodamine B assay; assay type: functional
# NCI-H23 = assay: Growth inhibition of human NCI-H23 cells at 10 uM after 48 hrs by sulforhodamine B assay; assay type: functional
# HOP-92 = assay: Growth inhibition of human HOP92 cells at 10 uM after 48 hrs by sulforhodamine B assay; assay type: functional
# HOP-62 = assay: Growth inhibition of human HOP62 cells at 10 uM after 48 hrs by sulforhodamine B assay; assay type: functional
# A549 = assay: Growth inhibition of human A549/ATCC cells at 10 uM after 48 hrs by sulforhodamine B assay; assay type: functional
# SR = assay: Growth inhibition of human SR cells at 10 uM after 48 hrs by sulforhodamine B assay; assay type: functional; settings: read-out: GI
# RPMI-8226 = assay: Growth inhibition of human RPMI8226 cells at 10 uM after 48 hrs by sulforhodamine B assay; assay type: functional
# MOLT-4 = assay: Growth inhibition of human MOLT4 cells at 10 uM after 48 hrs by sulforhodamine B assay; assay type: functional; settings: MOLT-4, 48 h, read-out: GI
# K562 = assay: Growth inhibition of human K562 cells at 10 uM after 48 hrs by sulforhodamine B assay; assay type: functional
# HL-60(TB) = assay: Growth inhibition of human HL-60(TB) cells at 10 uM after 48 hrs by sulforhodamine B assay; assay type: functional; settings: HL-60, 48 h, read-out: GI
# CCRF-CEM = assay: Growth inhibition of human CCRF-CEM cells at 10 uM after 48 hrs by sulforhodamine B assay; assay type: functional; settings: read-out: GI
# MDA-MB-468 = assay: Growth inhibition of human MDA-MB-468 cells at 10 uM after 48 hrs by sulforhodamine B assay; assay type: functional
# T47D = assay: Growth inhibition of human T47D cells at 10 uM after 48 hrs by sulforhodamine B assay; assay type: functional
# BT-549 = assay: Growth inhibition of human BT549 cells at 10 uM after 48 hrs by sulforhodamine B assay; assay type: functional; settings: BT-549, 48 h, read-out: GI
# Hs-578T = assay: Growth inhibition of human Hs 578T cells at 10 uM after 48 hrs by sulforhodamine B assay; assay type: functional
# MDA-MB-231 = assay: Growth inhibition of human MDA-MB-231 cells at 10 uM after 48 hrs by sulforhodamine B assay; assay type: functional
# MCF7 = assay: Growth inhibition of human MCF7 cells at 10 uM after 48 hrs by sulforhodamine B assay; assay type: functional
# DU-145 = assay: Growth inhibition of human DU145 cells at 10 uM after 48 hrs by sulforhodamine B assay; assay type: functional
# PC-3 = assay: Growth inhibition of human PC3 cells at 10 uM after 48 hrs by sulforhodamine B assay; assay type: functional
# TK-10 = assay: Growth inhibition of human TK10 cells at 10 uM after 48 hrs by sulforhodamine B assay; assay type: functional
# SN12C = assay: Growth inhibition of human SN12C cells at 10 uM after 48 hrs by sulforhodamine B assay; assay type: functional
# RXF 393 = assay: Growth inhibition of human RXF393 cells at 10 uM after 48 hrs by sulforhodamine B assay; assay type: functional
# ACHN = assay: Growth inhibition of human ACHN cells at 10 uM after 48 hrs by sulforhodamine B assay; assay type: functional
# A498 = assay: Growth inhibition of human A498 cells at 10 uM after 48 hrs by sulforhodamine B assay; assay type: functional
# 786-0 = assay: Growth inhibition of human 786-0 cells at 10 uM after 48 hrs by sulforhodamine B assay; assay type: functional
# OVCAR-8 = assay: Growth inhibition of human OVCAR8 cells at 10 uM after 48 hrs by sulforhodamine B assay; assay type: functional
# OVCAR-5 = assay: Growth inhibition of human OVCAR5 cells at 10 uM after 48 hrs by sulforhodamine B assay; assay type: functional
# OVCAR-4 = assay: Growth inhibition of human OVCAR4 cells at 10 uM after 48 hrs by sulforhodamine B assay; assay type: functional
# OVCAR-3 = assay: Growth inhibition of human OVCAR3 cells at 10 uM after 48 hrs by sulforhodamine B assay; assay type: functional
# IGROV-1 = assay: Growth inhibition of human IGROV1 cells at 10 uM after 48 hrs by sulforhodamine B assay; assay type: functional
# UACC-62 = assay: Growth inhibition of human UACC62 cells at 10 uM after 48 hrs by sulforhodamine B assay; assay type: functional
# SK-MEL-5 = assay: Growth inhibition of human SK-MEL-5 cells at 10 uM after 48 hrs by sulforhodamine B assay; assay type: functional
# SK-MEL-28 = assay: Growth inhibition of human SK-MEL-28 cells at 10 uM after 48 hrs by sulforhodamine B assay; assay type: functional, cell-based
# SK-MEL-2 = assay: Growth inhibition of human SK-MEL-2 cells at 10 uM after 48 hrs by sulforhodamine B assay; assay type: functional
# MDA-MB-435 = assay: Growth inhibition of human MDA-MB-435 cells at 10 uM after 48 hrs by sulforhodamine B assay; assay type: functional
# M14 = assay: Growth inhibition of human M14 cells at 10 uM after 48 hrs by sulforhodamine B assay; assay type: functional
compound,measurement,setting,value
NS(=O)(=O)c1cnccc1N1CCC(Cc2ccccc2)CC1,inhibition of growth at 10 µM,Malme-3M,4%
same,growth inhibition (GI),LOX IMVI,inactive
same,growth inhibition (GI),U-251,inactive
same,growth inhibition (GI),SNB-75,inactive
same,inhibition of growth at 10 µM,"KM12; KM12, 48 h, read-out: GI",2%
same,growth inhibition (GI),SW-620,inactive
same,inhibition of growth at 10 µM,"HT-29; HT-29, 48 h, read-out: GI",2%
same,inhibition of growth at 10 µM,"HCT-15; HCT-15, 48 h, read-out: GI",2%
same,inhibition of growth at 10 µM,"HCT-116; HCT-116, 48 h, read-out: GI",10%
same,growth inhibition (GI),COLO 205,inactive
same,inhibition of growth at 10 µM,NCI-H522,12%
same,growth inhibition (GI),NCI-H322M,inactive
same,growth inhibition (GI),NCI-H23,inactive
same,inhibition of growth at 10 µM,"HOP-92; HOP-92, 48 h, read-out: GI",39%
same,growth inhibition (GI),HOP-62,inactive
same,inhibition of growth at 10 µM,"A549; A549, 48 h, read-out: GI",1%
same,inhibition of growth at 10 µM,SR,18%
same,inhibition of growth at 10 µM,"RPMI-8226; RPMI-8226, 48 h, read-out: GI",11%
same,inhibition of growth at 10 µM,MOLT-4,9%
same,inhibition of growth at 10 µM,"K562; K562, 48 h, read-out: GI",9%
same,inhibition of growth at 10 µM,HL-60(TB),3%
same,inhibition of growth at 10 µM,CCRF-CEM,3%
same,inhibition of growth at 10 µM,"MDA-MB-468; MDA-MB-468, 48 h, read-out: GI",8%
same,inhibition of growth at 10 µM,T47D; read-out: GI,10%
same,inhibition of growth at 10 µM,BT-549,13%
same,growth inhibition (GI),Hs-578T,inactive
same,growth inhibition (GI),MDA-MB-231,inactive
same,growth inhibition (GI),MCF7,inactive
same,growth inhibition (GI),DU-145,inactive
same,inhibition of growth at 10 µM,"PC-3; PC-3, 48 h, read-out: GI",2%
same,growth inhibition (GI),TK-10,inactive
same,inhibition of growth at 10 µM,SN12C; read-out: GI,1%
same,growth inhibition (GI),RXF 393,inactive
same,growth inhibition (GI),ACHN,inactive
same,inhibition of growth at 10 µM,"A498; A498, 48 h, read-out: GI",8%
same,growth inhibition (GI),786-0,inactive
same,inhibition of growth at 10 µM,"OVCAR-8; OVCAR-8, 48 h, read-out: GI",1%
same,inhibition of growth at 10 µM,"OVCAR-5; OVCAR-5, 48 h, read-out: GI",1%
same,inhibition of growth at 10 µM,"OVCAR-4; OVCAR-4, 48 h, read-out: GI",2%
same,growth inhibition (GI),OVCAR-3,inactive
same,inhibition of growth at 10 µM,"IGROV-1; IGROV-1, 48 h, read-out: GI",3%
same,inhibition of growth at 10 µM,"UACC-62; UACC-62, 48 h, read-out: GI",3%
same,inhibition of growth at 10 µM,"SK-MEL-5; SK-MEL-5, 48 h, read-out: GI",4%
same,growth inhibition (GI),SK-MEL-28,inactive
same,growth inhibition (GI),SK-MEL-2,inactive
same,growth inhibition (GI),MDA-MB-435,inactive
same,growth inhibition (GI),M14,inactive
NS(=O)(=O)c1cnccc1N1CCN(c2ncccn2)CC1,inhibition of growth at 10 µM,Malme-3M,6%
same,inhibition of growth at 10 µM,LOX IMVI; read-out: GI,4%
same,growth inhibition (GI),U-251,inactive
same,inhibition of growth at 10 µM,"SNB-75; SNB-75, 48 h, read-out: GI",11%
same,growth inhibition (GI),KM12,inactive
same,growth inhibition (GI),SW-620,inactive
same,growth inhibition (GI),HT-29,inactive
same,growth inhibition (GI),HCT-15,inactive
same,growth inhibition (GI),HCT-116,inactive
same,growth inhibition (GI),COLO 205,inactive
same,inhibition of growth at 10 µM,NCI-H522,2%
same,growth inhibition (GI),NCI-H322M,inactive
same,growth inhibition (GI),NCI-H23,inactive
same,growth inhibition (GI),HOP-92,inactive
same,growth inhibition (GI),HOP-62,inactive
same,growth inhibition (GI),A549,inactive
same,inhibition of growth at 10 µM,SR,17%
same,growth inhibition (GI),RPMI-8226,inactive
same,inhibition of growth at 10 µM,MOLT-4,6%
same,growth inhibition (GI),K562,inactive
same,inhibition of growth at 10 µM,HL-60(TB),9%
same,inhibition of growth at 10 µM,CCRF-CEM,10%
same,growth inhibition (GI),MDA-MB-468,inactive
same,growth inhibition (GI),T47D,inactive
same,inhibition of growth at 10 µM,BT-549,7%
same,growth inhibition (GI),Hs-578T,inactive
same,growth inhibition (GI),MDA-MB-231,inactive
same,growth inhibition (GI),MCF7,inactive
same,growth inhibition (GI),DU-145,inactive
same,growth inhibition (GI),PC-3,inactive
same,growth inhibition (GI),TK-10,inactive
same,growth inhibition (GI),SN12C,inactive
same,growth inhibition (GI),RXF 393,inactive
same,growth inhibition (GI),ACHN,inactive
same,growth inhibition (GI),A498,inactive
same,inhibition of growth at 10 µM,"786-0; 786-0, 48 h, read-out: GI",1%
same,growth inhibition (GI),OVCAR-8,inactive
same,growth inhibition (GI),OVCAR-5,inactive
same,growth inhibition (GI),OVCAR-4,inactive
same,growth inhibition (GI),OVCAR-3,inactive
same,growth inhibition (GI),IGROV-1,inactive
same,growth inhibition (GI),UACC-62,inactive
same,growth inhibition (GI),SK-MEL-5,inactive
same,growth inhibition (GI),SK-MEL-28,inactive
same,growth inhibition (GI),SK-MEL-2,inactive
same,growth inhibition (GI),MDA-MB-435,inactive
same,growth inhibition (GI),M14,inactive
